Laboratory results as given in patent US9271497B2, “1-(substituted-benzoyl)-5-fluoro-4-imino-3-methyl-3,4-dihydropyrimidin-2(1H)-one derivatives” (DOW AGROSCIENCES LLC, priority 2012, dated 2016).

Key:
[1] = system: Mycosphaerella graminicola; Anamorph: Septoria tritici; Bayer Code SEPTTR; experiment: Fungicidal activity against leaf blotch of wheat, one-day protectant (1DP); assay type: in vivo; conditions: wheat plants (variety Yuma), % disease control rating
Experimental: (§1) Evaluation of Fungicidal Activity: Leaf Blotch of Wheat (Mycosphaerella graminicola; Anamorph: Septoria tritici; Bayer Code […]) Wheat plants (variety Yuma) were grown from seed in a greenhouse in 50% mineral soil/50% soil-less Metro mix until the first leaf was fully emerged, with 7-10 seedlings per pot. These plants were inoculated with an aqueous spore suspension of Septoria tritici either prior to or after fungicide treatments. After inoculation the plants were kept in 100% relative humidity (one day in a dark dew chamber followed by two to three days in a lighted dew chamber) to permit spores to germinate and infect the leaf. The plants were then transferred to a greenhouse for disease to develop. The following table presents the activity of typical compounds of the present disclosure when evaluated in these experiments. The effectiveness of the test compounds in controlling disease was determined by assessing the severity of disease on treated plants, then converting the severity to percent control based on the level of disease on untreated, inoculated plants.

[2] = system: Mycosphaerella graminicola; Anamorph: Septoria tritici; Bayer Code SEPTTR; experiment: Fungicidal activity against leaf blotch of wheat, three-day curative (3DC); assay type: in vivo; conditions: wheat plants (variety Yuma), % disease control rating
Experimental: as §1

Structure (SMILES)	melting point [°C]	SEPTTR 100 PPM 1DP [1]	SEPTTR 100 PPM 3DC [2]
Cn1c(=N)c(F)cn(C(=O)c2cc(Cl)cc(Cl)c2)c1=O [Compound 1, 1-(3,5-dichlorobenzoyl)-5-fluoro-4-imino-3-methyl-3,4-dihydropyrimidin-2(1H)-one]	141.6 to 142.6	A (76-100)	A (76-100)
Cc1ccc(C(=O)n2cc(F)c(=N)n(C)c2=O)cc1 [Compound 2]	103 to 107	A (76-100)	A (76-100)
